{"source": "patent US10695330B2", "about": "“Methods of treatment” (Global Blood Therapeutics, Inc., priority 2015, dated 2020)", "system": "mice with bleomycin-induced fibrosis", "test": "Bleomycin induced mouse model of hypoxemia and pulmonary fibrosis", "assay_type": "in vivo", "description": "Forty-eight C57B/L6 male mice aged 7-8 weeks were obtained from Simonsen Laboratory, Gilroy, Calif. The mice were ear tagged and weighed prior to the start of the study. The animals were distributed into four groups with twelve animals in each group. Body weights of all mice were recorded daily during the study. Animals in groups 2, 3 and 4 were administered 3 U/kg bleomycin sulfate USP (Teva Pharmaceuticals) via oropharyngeal route […] (see Walters, D. M. and S. R. Kleeberger (2008). “Mouse models of bleomycin-induced pulmonary fibrosis.” Curr Protoc Pharmacol Chapter 5: Unit 5 46.) Animals in group 1 were administered normal saline via oropharyngeal route.\nCompound 1 (formulated in dimethylacetamide: polyethylene glycol 400 (PEG400): 40% cavitron at a 1:5:4 ratio) was administered at either low dose (first day 50 mg/kg followed by 40 mg/kg daily) or high dose (first day 150 mg/kg followed by 85 mg/kg daily) via oral gavage to bleomycin treated mice once daily from day 8 to day 15. Animals in group 1 were administered vehicle via oral gavage. The dosing volume was 200 μL. The study animals were sacrificed on day 15 at 4 hours post final dose.\nSamples for hemoximetry and pharmacokinetics (PK) were taken 4 hours following the last dose of the dosing regimen. BAL fluid was collected from the lungs of the animals by lavaging the lung with 1 ml Hanks balanced salt media (HBSS). Lungs were harvested from each animal and weighed. They were then inflated by ˜0.5 mL of 10% NBF and fixed in a formalin container for subsequent histopathological analysis.\nHypoxia is a feature of IPF, and oxygen saturation measurements are often used clinically to evaluate the presence and severity of hypoxia. Responses to hypoxia in mice treated with Compound 1 were first evaluated by measuring arterial oxygen saturation (SaO2). On day 7 and 14 after bleomycin or saline instillation, 50 μL of arterial blood from the tail artery were used for measurement of arterial oxygen saturation (SaO2) using whole blood GEM OPL co-oximeter (Instrumentation Laboratory, MA). An additional aliquot of 100 μL of blood were collected from tail artery and arterial blood gases using the i-STAT Handheld Blood Analyzer (ABBOTT) were measured using CG4+ cartridges. For each mouse, SaO2 and arterial oxygen tension (pO2) were measured. […] In contrast, arterial oxygenation levels of vehicle treated mice further declined throughout the study (FIG. 4C). The arterial blood gases (ABG) were also analyzed on day 7 and day 14 (FIG. 4C). Data are expressed as means±SEM. […] In vehicle-treated bleomycin mice the pO2 reached a further decline at day 14.\nIn this bleomycin model, mice develop extensive pulmonary fibrosis as well as pulmonary inflammation; thus, the effect of Compound 1 treatment on the phenotype of pulmonary inflammatory cells was examined. The BAL fluid was centrifuged at 1,000 rpm at 4° C. for 5 minutes. The BAL cell pellets were suspended in 2 mls of 1× Pharmalyse buffer (BD Bioscience) to lyse the RBCs. PBS+2% FBS were added to stop the lysis reaction and cells centrifuged again. Leukocytes in the cell pellet were counted using a hemocytometer and the trypan blue exclusion method.\nPulmonary fibrosis was induced by administering mice a single dose of bleomycin. Collagen content of was determined by quantifying total soluble collagen in the BALF supernatant using the Sircol collagen dye binding assay according to the manufacturer's instructions (Biocolor Ltd, Carrick Fergus, UK).\nLungs were harvested from each animal and weighed at Day 15.\nThe histopathological analysis was conducted at Seventh Wave Laboratories, Chesterfield, Mo. The lung samples were processed and embedded with all lobes from each mouse in one paraffin block. Coronal sections through the four major lobes were stained with Masson's Trichrome. For each animal, consecutive lung fields were examined in a raster pattern using a 20× objective lens and a 10× or 40× ocular lens (200× or 800×). […]"}
{"smiles": "O=Cc1c(O)cccc1OC[C@@H]1CCCCN1C(=O)c1cccnc1", "note": "[Compound 1, (S)-2-hydroxy-6-((1-nicotinoylpiperidin-2-yl)methoxy)benzaldehyde]", "values": [{"measurement": "arterial oxygen tension (pO2)", "setting": "day 14", "value": "tendency for an increase pO2 or prevention of further decline of pO2"}, {"measurement": "arterial oxygen saturation (SaO2)", "setting": "day 14, after seven consecutive days of treatment, low and high dose", "value": "return toward control values"}, {"measurement": "improvement of overall Ashcroft scores", "setting": "day 15, P<0.01", "value": "approximately 50%"}, {"measurement": "collagen protein (total soluble collagen in BALF supernatant, Sircol)", "setting": "day 15, P<0.05", "value": "significant reduction in collagen protein in the lungs"}, {"measurement": "total inflammatory cells recovered in BAL fluid", "setting": "day 15, P<0.05", "value": "significant reduction in total inflammatory cells recovered in BAL fluid"}, {"measurement": "lung weight", "setting": "day 15, vs bleomycin vehicle control, P<0.01", "value": "significantly heavier than lungs from Compound 1-treated mice"}, {"measurement": "collagen deposition (Masson's trichrome histology)", "setting": "day 15 lung sections, low and high dose", "value": "diminished collagen deposition"}]}
